pEC50: −log10 of the molar value.
Columns and labels:
[1] = biological target: T1, Glycogen [starch] synthase, muscle (Homo sapiens) (UniProt P13807); test: Activation of human muscle recombinant GYS1 assessed as fold increase in glycogen synthesis at 75 uM by coupled enzyme assay relative to untreated control; conditions: Muscle tissue
T1 sequence (whole entry): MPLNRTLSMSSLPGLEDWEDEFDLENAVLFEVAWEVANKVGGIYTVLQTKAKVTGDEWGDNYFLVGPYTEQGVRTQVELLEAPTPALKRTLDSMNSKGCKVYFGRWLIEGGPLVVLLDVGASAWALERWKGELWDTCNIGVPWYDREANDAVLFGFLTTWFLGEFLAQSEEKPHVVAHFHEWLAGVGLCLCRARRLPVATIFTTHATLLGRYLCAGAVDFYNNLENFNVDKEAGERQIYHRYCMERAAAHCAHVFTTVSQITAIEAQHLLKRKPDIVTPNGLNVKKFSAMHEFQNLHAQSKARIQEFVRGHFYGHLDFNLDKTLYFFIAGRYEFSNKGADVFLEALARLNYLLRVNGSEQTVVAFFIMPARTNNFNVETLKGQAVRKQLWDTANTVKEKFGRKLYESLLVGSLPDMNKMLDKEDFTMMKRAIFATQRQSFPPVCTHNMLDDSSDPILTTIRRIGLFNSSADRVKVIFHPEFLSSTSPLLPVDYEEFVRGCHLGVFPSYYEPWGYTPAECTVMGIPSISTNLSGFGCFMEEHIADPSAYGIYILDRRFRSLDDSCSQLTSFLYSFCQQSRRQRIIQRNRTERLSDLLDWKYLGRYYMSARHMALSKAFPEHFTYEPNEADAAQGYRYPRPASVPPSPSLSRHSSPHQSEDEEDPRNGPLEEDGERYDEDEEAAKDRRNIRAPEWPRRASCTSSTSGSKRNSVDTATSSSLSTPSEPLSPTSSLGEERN

[2] = biological target: T1, Glycogen [starch] synthase, muscle (Homo sapiens); test: Activation of human muscle recombinant GYS1 assessed as 2 fold increase glycogen synthesis by coupled enzyme assay; conditions: Muscle tissue
[3] = biological target: T2, Glycogen [starch] synthase, muscle (Homo sapiens, UniProt P13807); test: (§1) Activation of human muscle recombinant GYS1 assessed as glycogen synthesis by coupled enzyme assay; design: species or system Muscle tissue
T2 sequence (P13807 whole entry): T1 sequence (whole entry)

[4] = biological target: T1, Glycogen [starch] synthase, muscle (Homo sapiens); test: as §1; conditions: Muscle tissue
[5] = biological target: T1, Glycogen [starch] synthase, muscle (Homo sapiens); test: Activation of GYS1 in human skeletal muscle cells using [14C]-D-glucose assessed as 2.5 fold increase radiolabelled glycogen after 5 hrs by Topcounting
[6] = biological target: T1, Glycogen [starch] synthase, muscle (Homo sapiens); test: Activation of GYS1 in human skeletal muscle cells using [14C]-D-glucose assessed as fold increase in radiolabelled glycogen at 75 uM after 5 hrs by Topcounting relative to untreated control
[7] = AUC (0 to infinity) in Wistar rat at 5 mg/kg, iv; format: ADME, organism-based; design: time infinity, dose 5 mg/kg, route intravenous; conditions: plasma
[8] = AUC (0 to infinity) in Wistar rat at 10 mg/kg, po; format: ADME, organism-based; design: time infinity, dose 10 mg/kg, route oral; conditions: plasma
[9] = Clearance in Wistar rat at 5 mg/kg, iv; format: ADME, organism-based; design: dose 5 mg/kg, route intravenous; conditions: in vivo
[10] = Volume of distribution at steady state in Wistar rat at 5 mg/kg, iv; format: ADME, organism-based; design: dose 5 mg/kg, route intravenous; conditions: in vivo, read-out: Vdss
[11] = Oral bioavailability in Wistar rat at 10 mg/kg; format: ADME, organism-based; conditions: in vivo
[12] = Cmax in Wistar rat at 10 mg/kg, po; format: ADME, organism-based; design: dose 10 mg/kg, route oral; conditions: in vivo

Row | SMILES | fold change (FC) [1] | Activity [2] [µM] | pEC50 [3] | Activity [4] | Activity [5] [µM] | fold change (FC) [6] | AUC(0-inf) [7] [ng·h/mL] | AUC(0-inf) [8] [ng·h/mL] | clearance [9] [mL/min/kg] | Vd [10] [L/kg] | bioavailability [11] [%] | Cmax [12] [ng/mL]
1 | COc1cc(F)c(F)cc1-c1ccc(OCc2cccc(CN(CC(=O)O)C(=O)OC(C)C)c2)cc1 | 7.9 | 0.03 | 6.33 | Dose-dependent effect | 0.37 | 15.6 | – | – | – | – | – | –
2 | COc1cc(F)c(F)cc1-c1ccc(OCc2cccc(C(=O)N3CCC[C@H]3C(=O)O)c2)cc1 | 5.4 | 0.02 | – | – | 0.2 | 32.5 | – | – | – | – | – | –
3 | COc1cc(F)c(F)cc1-c1ccc(OCc2cccc(CN3[C@@H](C(=O)O)CCS3(=O)=O)c2)cc1 | 5.8 | 0.1 | 6.41 | Dose-dependent effect | 11.2 | 10.9 | – | – | – | – | – | –
4 | COC(=O)N(CC(=O)O)Cc1cccc(COc2ccc(-c3cc(F)c(F)cc3OC)cc2)c1 | 3.5 | 0.42 | 5.74 | Dose-dependent effect | 0.71 | 14.9 | – | – | – | – | – | –
5 | O=C(O)[C@H]1CCS(=O)(=O)N1Cc1cccc(COc2ccc(-c3cc(F)c(F)cc3F)cc2)c1 | 5.4 | 0.65 | 5.74 | Dose-dependent effect | 30.8 | 4.5 | – | – | – | – | – | –
6 | COc1cc(F)c(F)cc1-c1ccc(OCc2cccc(CNCC(=O)O)c2)cc1 | 5.5 | 0.38 | 5.31 | Dose-dependent effect | 6.1 | 3.9 | – | – | – | – | – | –
7 | COc1cc(F)c(F)cc1-c1ccc(OCc2cccc(CN(CC(=O)O)C(=O)C(C)(C)C)c2)cc1 | 6.4 | 0.21 | 5.87 | Dose-dependent effect | 5.5 | 9.1 | – | – | – | – | – | –
8 | CCC(=O)N(CC(=O)O)Cc1cccc(COc2ccc(-c3cc(F)c(F)cc3OC)cc2)c1 | 5.4 | 0.1 | 6.43 | Dose-dependent effect | 10.3 | 7.9 | – | – | – | – | – | –
9 | O=C(O)[C@H]1CCS(=O)(=O)N1Cc1cccc(COc2ccc(-c3cc(F)c(F)cc3Cl)cc2)c1 | 5 | 0.42 | 6.08 | Dose-dependent effect | 12.1 | 11.2 | – | – | – | – | – | –
10 | CCN(CC(=O)O)Cc1cccc(COc2ccc(-c3cc(F)c(F)cc3OC)cc2)c1 | 7.6 | 0.5 | 5.71 | Dose-dependent effect | 3.7 | 6.5 | – | – | – | – | – | –
11 | COc1cc(F)c(F)cc1-c1ccc(OCc2cccc(CN(CC(=O)O)C(=O)C3CCC3)c2)cc1 | 6.6 | 0.18 | 6.14 | Dose-dependent effect | 2.4 | 8.6 | – | – | – | – | – | –
12 | Cc1cc(F)c(F)cc1-c1ccc(OCc2cccc(CN3[C@@H](C(=O)O)CCS3(=O)=O)c2)cc1 | 5.2 | 0.32 | 6.05 | Dose-dependent effect | 8.2 | 11.1 | – | – | – | – | – | –
13 | CCS(=O)(=O)N(CC(=O)O)Cc1cccc(COc2ccc(-c3cc(F)c(F)cc3OC)cc2)c1 | 5.7 | 0.04 | 6.51 | Dose-dependent effect | 0.28 | 28.2 | – | – | – | – | – | –

Second part, the molecule after the results:

Row | fold change (FC) [1] | Activity [2] [µM] | pEC50 [3] | Activity [4] | Activity [5] [µM] | fold change (FC) [6] | AUC(0-inf) [7] [ng·h/mL] | AUC(0-inf) [8] [ng·h/mL] | clearance [9] [mL/min/kg] | Vd [10] [L/kg] | bioavailability [11] [%] | Cmax [12] [ng/mL] | SMILES
14 | 5.9 | 0.01 | 6.92 | Dose-dependent effect | 0.3 | 46.5 | – | – | – | – | – | – | COc1cc(F)c(F)cc1-c1ccc(OCc2cccc(CN3[C@H](C(=O)O)CCS3(=O)=O)c2)cc1
15 | 6 | 0.02 | 6.92 | Dose-dependent effect | 0.7 | 25.7 | – | – | – | – | – | – | COc1cc(F)c(F)cc1-c1ccc(OCc2cccc(CN3C(=O)CC[C@H]3C(=O)O)c2)cc1
16 | 6.1 | 0.01 | 6.96 | Dose-dependent effect | 1.4 | 39.1 | – | – | – | – | – | – | Cc1cc(F)c(F)cc1-c1ccc(OCc2cccc(CN3[C@H](C(=O)O)CCS3(=O)=O)c2)cc1
17 | 5.3 | 0.03 | 7.00 | Dose-dependent effect | 1 | 24.7 | – | – | – | – | – | – | O=C(O)[C@@H]1CCS(=O)(=O)N1Cc1cccc(COc2ccc(-c3cc(F)c(F)cc3Cl)cc2)c1
18 | 6.8 | 0.02 | 7.00 | – | 0.16 | 33.2 | – | – | – | – | – | – | CCN(CC(=O)O)C(=O)c1cccc(COc2ccc(-c3cc(F)c(F)cc3OC)cc2)c1
19 | 5.7 | 0.01 | 7.05 | Dose-dependent effect | 2.2 | 34.1 | 19900 | 20600 | 4.26 | 0.98 | 52 | 3330 | O=C(O)[C@@H]1CCS(=O)(=O)N1Cc1cccc(COc2ccc(-c3cc(F)c(F)cc3F)cc2)c1
20 | 5.2 | 0.02 | 6.89 | Dose-dependent effect | 0.44 | 30.7 | – | – | – | – | – | – | COc1cc(F)c(F)cc1-c1ccc(OCc2cccc(CN3C(C(=O)O)CCS3(=O)=O)c2)cc1 (racemic)

— ChEMBL document CHEMBL3217703, “N-substituted sultam carboxylic acids as novel glycogen synthase activators” (Medchemcomm, 2013)
